Results on 14 compounds are retold here after ChEMBL document CHEMBL1130917, “The design, synthesis, and structure-activity relationships of a series of macrocyclic MMP inhibitors” (Bioorg Med Chem Lett, 1998).

Assay [1] concerns the target 72 kDa type IV collagenase (Homo sapiens, UniProt P08253). Nature of the assay: Inhibition of fibroblast gelatinase A (MMP-2).
In another assay the target is T1, Interstitial collagenase (Homo sapiens, UniProt P03956).
T1 sequence (P03956 whole entry): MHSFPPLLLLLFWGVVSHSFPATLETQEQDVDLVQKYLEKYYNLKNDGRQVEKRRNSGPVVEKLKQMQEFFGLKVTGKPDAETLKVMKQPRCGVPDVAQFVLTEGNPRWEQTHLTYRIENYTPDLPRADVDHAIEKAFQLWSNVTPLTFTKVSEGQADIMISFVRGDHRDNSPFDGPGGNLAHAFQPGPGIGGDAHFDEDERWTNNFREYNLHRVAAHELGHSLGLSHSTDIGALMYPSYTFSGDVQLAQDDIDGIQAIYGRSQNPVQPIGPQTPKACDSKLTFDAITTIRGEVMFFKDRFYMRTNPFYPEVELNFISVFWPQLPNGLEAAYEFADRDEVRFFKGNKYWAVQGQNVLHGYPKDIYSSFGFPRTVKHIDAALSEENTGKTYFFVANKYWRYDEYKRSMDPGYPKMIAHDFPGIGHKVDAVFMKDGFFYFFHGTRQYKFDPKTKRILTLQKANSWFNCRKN
Put plainly: Inhibition of fibroblast collagenase (MMP-1).

The next assay deals with T2, Matrilysin (Homo sapiens, UniProt P09237).
T2 sequence (P09237 whole entry): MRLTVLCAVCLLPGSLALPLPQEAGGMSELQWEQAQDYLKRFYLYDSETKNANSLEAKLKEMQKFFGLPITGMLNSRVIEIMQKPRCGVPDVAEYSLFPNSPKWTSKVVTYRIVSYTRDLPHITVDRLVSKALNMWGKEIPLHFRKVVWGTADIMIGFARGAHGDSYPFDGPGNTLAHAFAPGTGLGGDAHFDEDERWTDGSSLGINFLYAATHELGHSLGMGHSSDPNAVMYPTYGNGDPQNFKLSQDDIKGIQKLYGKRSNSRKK
Put plainly: Inhibition of fibroblast matrilysin (MMP-7).

Another assay has as its target Stromelysin-1 (Homo sapiens, UniProt P08254). Put plainly: Inhibition of fibroblast stromelysin (MMP-3).

Sequence of 72 kDa type IV collagenase (P08253 whole entry): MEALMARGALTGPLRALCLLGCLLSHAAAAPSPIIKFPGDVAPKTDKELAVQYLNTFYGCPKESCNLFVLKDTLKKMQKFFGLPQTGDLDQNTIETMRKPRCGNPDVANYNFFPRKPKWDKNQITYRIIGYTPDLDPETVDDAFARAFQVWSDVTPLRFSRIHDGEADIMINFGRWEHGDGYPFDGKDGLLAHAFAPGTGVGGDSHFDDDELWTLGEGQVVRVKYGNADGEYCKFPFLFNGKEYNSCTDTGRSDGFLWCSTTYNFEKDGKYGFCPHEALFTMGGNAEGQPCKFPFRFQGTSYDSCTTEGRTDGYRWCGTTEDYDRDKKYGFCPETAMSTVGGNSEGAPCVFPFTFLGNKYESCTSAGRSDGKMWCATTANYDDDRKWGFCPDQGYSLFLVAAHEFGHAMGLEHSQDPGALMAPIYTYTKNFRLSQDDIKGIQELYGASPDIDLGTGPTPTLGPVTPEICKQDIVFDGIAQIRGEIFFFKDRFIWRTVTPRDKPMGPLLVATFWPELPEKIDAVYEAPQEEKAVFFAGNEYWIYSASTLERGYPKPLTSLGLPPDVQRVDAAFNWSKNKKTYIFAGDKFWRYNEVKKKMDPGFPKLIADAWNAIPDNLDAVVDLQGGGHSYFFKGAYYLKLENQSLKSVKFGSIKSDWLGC
Sequence of Stromelysin-1 (P08254 whole entry): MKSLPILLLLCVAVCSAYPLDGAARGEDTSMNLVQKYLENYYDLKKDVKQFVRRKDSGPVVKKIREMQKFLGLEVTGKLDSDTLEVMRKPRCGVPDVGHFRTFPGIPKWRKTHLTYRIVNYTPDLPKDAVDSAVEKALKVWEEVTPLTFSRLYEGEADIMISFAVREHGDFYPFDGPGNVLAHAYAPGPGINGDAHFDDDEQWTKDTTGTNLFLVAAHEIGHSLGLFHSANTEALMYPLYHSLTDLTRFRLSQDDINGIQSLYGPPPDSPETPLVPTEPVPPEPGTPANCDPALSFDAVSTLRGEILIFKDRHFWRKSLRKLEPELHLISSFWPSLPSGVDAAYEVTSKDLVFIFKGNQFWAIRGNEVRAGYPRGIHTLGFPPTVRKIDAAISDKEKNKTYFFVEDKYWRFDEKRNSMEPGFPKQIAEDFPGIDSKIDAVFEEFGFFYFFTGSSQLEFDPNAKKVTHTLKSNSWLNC

With `CNC(=O)[C@@H]1Cc2ccc(cc2)OCCCCCC[C@H](C(=O)NO)[C@@H](CC(C)C)C(=O)N1`, the figures for the IC50 (in assay [1]; against Interstitial collagenase; against Matrilysin) were 5.9 nM, 2.2 nM and 5.7 nM, respectively.

Regarding `CNC(=O)[C@@H]1Cc2ccc(cc2)OCCCC[C@@H](C(=O)NO)[C@@H](CC(C)C)C(=O)N1`, the values for the 50% inhibitory concentration (IC50) (in assay [1]; at Interstitial collagenase; at Matrilysin) were 230 nM, 110 nM and 440 nM, respectively.

With `CC(C)C[C@H]1C(=O)N[C@H](C(=O)NCCN(C)C)Cc2ccc(cc2)OCCCC[C@@H]1C(=O)NO`, the IC50 (in general, the concentration needed to halve the response being measured) in assay [1] was 6.5 nM; on Interstitial collagenase it was 6.6 nM; against Stromelysin-1, 12 nM; against Matrilysin, 4.2 nM.

Regarding `CNC(=O)[C@@H]1Cc2ccc(cc2)OCCCCC[C@H](C(=O)O)[C@@H](CC(C)C)C(=O)N1`, the half-maximal inhibitory concentration (IC50) in assay [1] worked out at 1400 nM; at Interstitial collagenase, 1400 nM; on Stromelysin-1, 75 nM; on Matrilysin, 110 nM.

As to `CNC(=O)[C@@H]1Cc2ccc(cc2)OCCCC[C@H](C(=O)NO)[C@@H](CCCCOCc2ccccc2)C(=O)N1`, the IC50 in assay [1] is 0.3 nM; against Interstitial collagenase, 210 nM; on Stromelysin-1, 1.8 nM; against Matrilysin, 180 nM.

For `CCCc1ccc(CC[C@H]2C(=O)N[C@H](C(=O)NC)Cc3ccc(cc3)OCCCC[C@@H]2C(=O)NO)cc1`, the IC50 came out at 0.1 nM in assay [1], 54 nM against Interstitial collagenase and 5.9 nM on Matrilysin.

With `CNC(=O)[C@@H]1Cc2ccc(cc2)OCCCC[C@H](C(=O)NO)[C@@H](CC(C)C)C(=O)N1`, the IC50 worked out at 2.2 nM in assay [1], 1.8 nM on Interstitial collagenase and 1.6 nM at Matrilysin.

For `CNC(=O)[C@@H]1Cc2ccc(cc2)OCCC[C@H](C(=O)O)[C@@H](CC(C)C)C(=O)N1`, the IC50 was 14000 nM in assay [1], over 10000 nM against Interstitial collagenase and 900 nM against Matrilysin.

As for `CNC(=O)[C@@H]1Cc2ccc(cc2)OCCC[C@H](C(=O)NO)[C@@H](CC(C)C)C(=O)N1`, the IC50 came out at 2.6 nM in assay [1], 3 nM against Interstitial collagenase and 3 nM against Matrilysin.

As for `CNC(=O)[C@@H]1Cc2ccc(cc2)OCCCCC[C@H](C(=O)NO)[C@@H](CC(C)C)C(=O)N1`, the IC50 in assay [1] amounted to 2.3 nM; on Interstitial collagenase, 2.1 nM; at Matrilysin, 2.6 nM.

Regarding `CNC(=O)[C@@H]1Cc2ccc(cc2)OCCCC[C@H](C(=O)NO)[C@@H](CCCc2ccc(C)cc2)C(=O)N1`, the IC50 in assay [1] was 0.8 nM; against Interstitial collagenase, 6.1 nM; against Stromelysin-1, 9.1 nM; on Matrilysin, 2.8 nM.

Turning to `CC(C)C[C@H]1C(=O)N[C@H](C(=O)Nc2ccccn2)Cc2ccc(cc2)OCCCC[C@@H]1C(=O)NO`, the IC50 in assay [1] came out at 2.1 nM; on Interstitial collagenase, 4.6 nM; on Matrilysin, 1.6 nM.

As to `CSCCNC(=O)[C@@H]1Cc2ccc(cc2)OCCCC[C@H](C(=O)NO)[C@@H](CC(C)C)C(=O)N1`, the IC50 in assay [1] stood at 3.8 nM; against Interstitial collagenase, 2.7 nM; at Stromelysin-1 it was 4.2 nM; against Matrilysin it was 2.5 nM.

Regarding `CC(C)C[C@H]1C(=O)N[C@H](C(=O)NCCc2ccc(S(N)(=O)=O)cc2)Cc2ccc(cc2)OCCCC[C@@H]1C(=O)NO`, the IC50 came to 1.9 nM in assay [1], 3 nM on Interstitial collagenase and 25 nM against Matrilysin.
